US11925655B2, “FAP-activated therapeutic agents, and uses related thereto” (Bach Biosciences, LLC, priority 2014, dated 2024)
pEC50: −log10 of the molar value. Read-outs that look alike come from different tables or passages of the source. Values belong to the molecule of their own block, whether it stands above or below them.

How the values were obtained:
FAP [1] = molecular target: T1, FAP (Homo sapiens, UniProt Q12884); experiment: FAP digest of 5057DOX (kinetics); type: biochemical
T1 sequence (Q12884 1-760): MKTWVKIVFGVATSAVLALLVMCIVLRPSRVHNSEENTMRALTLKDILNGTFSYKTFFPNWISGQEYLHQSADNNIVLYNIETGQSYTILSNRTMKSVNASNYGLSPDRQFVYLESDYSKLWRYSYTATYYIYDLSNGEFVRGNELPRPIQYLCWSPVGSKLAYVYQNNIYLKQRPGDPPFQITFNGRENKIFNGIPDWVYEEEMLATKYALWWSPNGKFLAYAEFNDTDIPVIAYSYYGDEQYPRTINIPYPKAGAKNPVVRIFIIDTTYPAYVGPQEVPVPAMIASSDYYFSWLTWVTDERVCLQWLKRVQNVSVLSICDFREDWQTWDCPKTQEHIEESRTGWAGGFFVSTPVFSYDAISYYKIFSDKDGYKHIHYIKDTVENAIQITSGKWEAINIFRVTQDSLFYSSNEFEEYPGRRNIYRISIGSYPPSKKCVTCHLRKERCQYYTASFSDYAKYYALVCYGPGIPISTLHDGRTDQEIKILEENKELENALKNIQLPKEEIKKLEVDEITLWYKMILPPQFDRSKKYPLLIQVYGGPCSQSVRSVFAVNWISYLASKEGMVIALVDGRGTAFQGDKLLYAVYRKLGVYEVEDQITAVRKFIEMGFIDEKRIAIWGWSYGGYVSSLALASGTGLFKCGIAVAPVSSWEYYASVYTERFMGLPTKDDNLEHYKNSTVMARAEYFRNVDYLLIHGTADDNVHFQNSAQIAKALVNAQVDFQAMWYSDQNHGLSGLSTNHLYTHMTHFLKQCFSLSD

FAP [2] = molecular target: T1, FAP; experiment: Selectivity of FAP over PREP (5057DOX activation by recombinant enzyme); type: biochemical; conditions: 240 nM 5057DOX, 12, 24 or 48 nM recombinant enzyme, 37° C., FIG. 12
Description: Recombinant enzyme (FAP or PREP) was combined, at reaction concentration of 12 nM, 24 nM, or 48 nM, with 240 nM 5057DOX in FAP buffer (50 mM Tris-HCl, pH 7.4, 140 mM NaCl) and incubated at 37° C. Reactions were stopped at 0, 10, 20, or 30 minutes by addition of equal volume of 10 μM Val-boroPro (FAP inhibitor). Doxorubicin was measured by liquid chromatography/mass spectroscopy (LCMS).

MCF-7 = experiment: CellTiter-Blue cell viability assay: MCF-7; type: cell-based; conditions: Homo sapiens, MCF7, 5057DOX assay 5, 72 hour incubation
HEK-mFAP cells = experiment: CellTiter-Blue cell viability assay with HEK-mFAP cells; type: cell-based, human; conditions: Homo sapiens, 72 h
SK-OV-3 = experiment: CellTiter-Blue cell viability assay: SK-OV-3; type: cell-based; conditions: Homo sapiens, 5057DOX assay 5, 72 hour incubation
HEK-Mock cells = experiment: CellTiter-Blue cell viability assay with HEK-Mock cells; type: cell-based; conditions: Homo sapiens, 72 h
OVCAR-3 = experiment: CellTiter-Blue cell viability assay: OVCAR-3; type: cell-based; conditions: Homo sapiens, 5057DOX assay 5, 72 hour incubation
FAP [3] = molecular target: T1, FAP; experiment: Specificity of activation: digest with FAP; type: biochemical; conditions: 100 μM prodrug, 24 hours at 37° C.
Description: (§1) Total doxorubicin was measured for each assay.

[4] = Stability in mouse muscle lysate; conditions: 100 μM prodrug, 37° C., 12 h
[5] = molecular target: dipeptidyl peptidase IV (DPP IV) (Homo sapiens, UniProt P27487); experiment: Specificity of activation: digest with DPP IV; type: biochemical; conditions: 100 μM prodrug, 24 hours at 37° C.
Chain of dipeptidyl peptidase IV (DPP IV) (P27487 whole entry, species assumed): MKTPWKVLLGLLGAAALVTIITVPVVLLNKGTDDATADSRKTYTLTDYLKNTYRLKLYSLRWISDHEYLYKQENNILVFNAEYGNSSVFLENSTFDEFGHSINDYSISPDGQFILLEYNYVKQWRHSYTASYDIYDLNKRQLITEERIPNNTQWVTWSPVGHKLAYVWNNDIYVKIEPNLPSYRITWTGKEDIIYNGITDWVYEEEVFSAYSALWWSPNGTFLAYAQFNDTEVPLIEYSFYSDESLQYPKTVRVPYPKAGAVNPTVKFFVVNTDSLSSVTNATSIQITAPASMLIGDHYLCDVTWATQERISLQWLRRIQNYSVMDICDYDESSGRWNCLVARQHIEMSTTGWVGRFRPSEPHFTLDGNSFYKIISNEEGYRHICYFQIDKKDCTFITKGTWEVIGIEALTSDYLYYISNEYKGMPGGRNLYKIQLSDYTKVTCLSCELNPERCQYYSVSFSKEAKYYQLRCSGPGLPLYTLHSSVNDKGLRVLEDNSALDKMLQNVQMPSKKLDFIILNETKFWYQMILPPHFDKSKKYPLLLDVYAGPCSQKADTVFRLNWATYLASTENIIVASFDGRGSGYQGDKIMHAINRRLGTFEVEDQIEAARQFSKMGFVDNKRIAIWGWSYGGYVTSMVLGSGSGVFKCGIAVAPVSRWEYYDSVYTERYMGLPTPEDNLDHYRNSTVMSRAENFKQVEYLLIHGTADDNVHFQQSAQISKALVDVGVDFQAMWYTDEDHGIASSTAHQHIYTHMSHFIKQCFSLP
Description: as §1

PREP = molecular target: T2, PREP (Homo sapiens, UniProt P48147); experiment: Specificity of activation: digest with PREP; type: biochemical; conditions: 100 μM prodrug, 24 hours at 37° C.
T2 sequence (P48147 1-710): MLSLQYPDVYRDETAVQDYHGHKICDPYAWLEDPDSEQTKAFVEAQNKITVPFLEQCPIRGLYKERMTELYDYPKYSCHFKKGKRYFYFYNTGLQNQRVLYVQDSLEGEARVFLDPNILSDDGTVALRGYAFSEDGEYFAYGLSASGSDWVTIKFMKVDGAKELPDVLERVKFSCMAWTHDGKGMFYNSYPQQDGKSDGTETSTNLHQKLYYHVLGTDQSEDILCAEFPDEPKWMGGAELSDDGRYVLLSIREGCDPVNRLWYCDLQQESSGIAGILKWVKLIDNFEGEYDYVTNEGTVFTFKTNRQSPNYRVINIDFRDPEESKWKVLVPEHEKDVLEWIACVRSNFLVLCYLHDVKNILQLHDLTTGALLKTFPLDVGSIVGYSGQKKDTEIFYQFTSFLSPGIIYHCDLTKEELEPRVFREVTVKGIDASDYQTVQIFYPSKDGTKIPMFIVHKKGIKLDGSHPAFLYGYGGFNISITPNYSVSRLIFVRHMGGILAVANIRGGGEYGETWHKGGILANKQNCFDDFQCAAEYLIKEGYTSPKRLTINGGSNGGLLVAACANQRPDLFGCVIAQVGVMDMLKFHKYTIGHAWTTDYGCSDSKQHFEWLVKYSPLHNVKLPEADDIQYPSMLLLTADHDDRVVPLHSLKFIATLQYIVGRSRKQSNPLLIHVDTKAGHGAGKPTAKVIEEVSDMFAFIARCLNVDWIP
Description: as §1

[6] = tested on: COc1cccc2c1C(=O)c1c(O)c3c(c(O)c1C2=O)C[C@@](O)(C(=O)CO)C[C@@H]3OC1CC(NC(=O)[C@@H]2CC(F)(F)CN2C(=O)CNC(=O)c2ccnc3ccccc23)C(O)C(C)O1; experiment: FAP digest of 5057DOX (kinetics); type: biochemical
[7] = tested on: COc1cccc2c1C(=O)c1c(O)c3c(c(O)c1C2=O)C[C@@](O)(C(=O)CO)C[C@@H]3OC1CC(NC(=O)[C@@H]2CCCN2C(=O)[C@@H](C)NC(=O)c2ccncc2)C(O)C(C)O1; type: biochemical; conditions: other: 1.34×10^−8 M FAP, 37° C., pH 7.5
Description: Michaelis-Menten enzyme kinetics for FAP were measured using a SpectraMax M2e microplate reader (Molecular Devices, Sunnyvale, CA, USA). The assays were performed in FAP buffer (50 mM Tris, 140 mM NaCl, pH 7.5) at 25° C., and the fluorescence continuously monitored at excitation and emission wavelengths of 380 and 460 nm, respectively. Kinetic constants (kcat and Km) were determined using GP-AMC (Bachem, Torrance, CA, USA), Ac-(D)-AP-AFC (MP Biomedicals, Solon, OH, USA) and test article concentrations equivalent to 0.1-5 times their respective Km values, and with 5-10 nM enzyme. All assays were performed in triplicate, and the results were calculated with a nonlinear regression analysis, relying on a Michaelis-Menten curve fit using GraphPad software.
3099DOX at various concentrations ranging from 8.5×10^−6 M to 6.9×10^−4 M was incubated with 1.34×10^−8 M FAP or PREP at 37° C., and released doxorubicin measured.

[8] = read-out: EC50 (prodrug + 25 nM FAP)
[9] = read-out: EC50 (prodrug + 100 uM 5057)
[10] = 5057DOX assay 2, 72 hour incubation, read-out: EC50 (prodrug + 25 nM PREP)
[11] = 5057DOX assay 2, 72 hour incubation, read-out: EC50 (prodrug + 100 uM 2054-9)
[12] = 5057DOX assay 2, 72 hour incubation, read-out: EC50 (prodrug alone)
[13] = 5057DOX assay 3, 72 hour incubation, read-out: EC50 (prodrug + 100 uM 2054-9)
[14] = 5057DOX assay 3, 72 hour incubation, read-out: EC50 (prodrug + 100 uM 3099-15)
[15] = 5057DOX assay 3, 72 hour incubation, read-out: EC50 (prodrug alone)
[16] = 5057DOX assay 4, 72 hour incubation, read-out: EC50 (prodrug + 100 uM 5057)
[17] = 5057DOX assay 4, 72 hour incubation, read-out: EC50 (prodrug alone)
[18] = other: 5057DOX assay 6, [FAP] 4.00 × 10^−9M
[19] = other: 5057DOX assay 7, [FAP] 1 nM

Kcat(Vmax/[E]) (FAP [1]; 5057DOX assay 6, [FAP] 4.00 × 10^−9M): Kcat(Vmax/[E]) 1.30 sec^−1
Vmax (FAP [1]; 5057DOX assay 7, [FAP] 1 nM, Dox standards, Daunorubicin internal standard): Vmax 9.80 × 10^−10M/sec
pEC50 (MCF-7; [8]): 4.64
pEC50 (MCF-7; [9]): < 4.00
pEC50 (MCF-7; read-out: EC50 (prodrug alone)): < 4.00
pEC50 (SK-OV-3; [8]): 6.85
pEC50 (SK-OV-3; [9]): 4.25
pEC50 (SK-OV-3; read-out: EC50 (prodrug alone)): 6.08
pEC50 (OVCAR-3; [8]): 6.00
pEC50 (OVCAR-3; [9]): < 4.00
pEC50 (OVCAR-3; read-out: EC50 (prodrug alone)): < 4.00
Molecule: COc1cccc2c1C(=O)c1c(O)c3c(c(O)c1C2=O)C[C@@](O)(C(=O)CO)C[C@@H]3O[C@H]1C[C@H](NC(=O)[C@@H]2CC(F)(F)CN2C(=O)CNC(=O)c2ccnc3ccccc23)[C@H](O)[C@H](C)O1 [Compound 5057DOX]
activation by FAP as compared to PREP (FAP [2]): selectively activated by FAP as compared to PREP
pEC50 (HEK-mFAP cells; [10]): 6.96
pEC50 (HEK-mFAP cells; [11]): 6.13
pEC50 (HEK-mFAP cells; 5057DOX assay 2, 72 hour incubation, read-out: EC50 (prodrug + 100 uM 3099-15)): < 5.00
pEC50 (HEK-mFAP cells; [12]): 6.85
pEC50 (HEK-mFAP cells; [13]): 5.28
pEC50 (HEK-mFAP cells; [14]): < 4.00
pEC50 (HEK-mFAP cells; [15]): 6.22
pEC50 (HEK-mFAP cells; [16]): < 4.00
pEC50 (HEK-mFAP cells; [17]): 6.11
pEC50 (HEK-mFAP cells; 5057DOX assay 8, 72 hour incubation, read-out: EC50 (prodrug + 100 uM 5057)): < 4.00
pEC50 (HEK-mFAP cells; 5057DOX assay 8, 72 hour incubation, read-out: EC50 (prodrug alone)): 5.96
pEC50 (HEK-Mock cells; 5057DOX assay 1, 72 hour incubation, read-out: EC50 (prodrug + 25 nM FAP)): 7.44
pEC50 (HEK-Mock cells; 5057DOX assay 1, 72 hour incubation, read-out: EC50 (prodrug + 25 nM PREP)): 6.60
pEC50 (HEK-Mock cells; 5057DOX assay 1, 72 hour incubation, read-out: EC50 (prodrug alone)): 6.32
pEC50 (HEK-Mock cells; 5057DOX assay 2, 72 hour incubation, read-out: EC50 (prodrug + 25 nM FAP)): 7.59
pEC50 (HEK-Mock cells; [10]): 6.66
pEC50 (HEK-Mock cells; [11]): 5.01
pEC50 (HEK-Mock cells; [12]): 6.34
pEC50 (HEK-Mock cells; [13]): < 5.00
pEC50 (HEK-Mock cells; [14]): < 4.00
pEC50 (HEK-Mock cells; [15]): 5.64
pEC50 (HEK-Mock cells; [16]): < 4.00
pEC50 (HEK-Mock cells; [17]): 5.96

Molecule: COc1cccc2c1C(=O)c1c(O)c3c(c(O)c1C2=O)C[C@@](O)(C(=O)CO)C[C@@H]3O[C@H]1C[C@H](NC(=O)[C@@H]2CCCN2C(=O)CNC(=O)OCc2ccccc2)[C@H](O)[C@H](C)O1 [z-GP-DOX, reference compound]
doxorubicin released by FAP (FAP [3]): A similar amount of doxorubicin was released
doxorubicin released in mouse muscle lysate [4]: a large amount of doxorubicin
doxorubicin released by DPP IV [5]: essentially none
doxorubicin released by PREP (PREP): A similar amount of doxorubicin was released

Molecule: FAP (Homo sapiens)
Km [6, 18]: Km 1.11 × 10^−5M M
Vmax [6, 18]: Vmax 5.19 × 10^−9M/sec M/sec
kcat/Km [6, 18]: kcat/Km 1.17 × 10^5M^−1sec^−1 M^−1sec^−1
Km [6, 19]: Km 4.85 × 10^−6M M
kcat [6, 19]: Kcat 0.98 sec^−1 sec^−1
kcat/Km [6, 19]: Kcat/Km 2.00 × 10^5M^−1 sec^−1 M^−1 sec^−1
Km [7]: 11.2 µM
Vmax [7]: 5.877e-09 M/s
kcat [7]: 0.44 s⁻¹
kcat/Km [7]: 39171 M⁻¹ s⁻¹
